Reference: patent US20180098969A1, “HODGKIN LYMPHOMA THERAPY” (Purdue Pharmaceutical Products L.P., priority 2016, published 2018)

Legend:
R100 cell line = test: ATM/ATR transcripts; assay type: cell-based, human; details: EDO-S101 alone
Method: 1.56 μM of EDO-S101 was administered to two Hodgkin lymphoma cell lines, the bendamustine naïve cell line L1236 and the bendamustine resistant cell line R100. In a second experiment, Brentuximab Vedotin was administered at a concentration of 3.12 μg/ml to the L1236 cell line and at a concentration of 0.39 μg/ml to the R100 cell line. Finally, in a third experiment EDO-S101 and Brentuximab Vedotin were administered in combination to each of the two cell lines at the same concentrations that they were administered in the monotherapy experiments.

[1] = test system: Hodgkin lymphoma cell lines (KMH2, HDML2, L540, L1236 and L426); test: IC50 comparison of bendamustine, vorinostat and EDO-S101; assay type: cell-based, human; details: tumour cells of Hodgkin lymphoma
Method: (a) Five Hodgkin lymphoma cell lines (KMH2, HDML2, L540, L1236 and L426) were cultured separately in the presence of bendamustine, vorinostat and EDO-S101 dissolved in DMSO at 37° C. L1236-derived Hodgkin lymphoma cell lines were selected as they have an acquired stable resistance to bendamustine (R100) or an ability to display continuous growth upon extended exposure to sub-lethal concentrations of bendamustine (R25, R50 and R75). A detailed description of the L1236-R Hodgkin lymphoma cell lines is disclosed in De Filippi et al, ASH 2015, Abstract. # 2479. In these tests, the L1236-100R bendamustine resistant strain was used.

[2] = test system: Hodgkin lymphoma cell lines L1236-R100, L1236/DMSO and L1236; test: Viable cell count and IC50, all three lines; assay type: cell-based, human
Method: (b) The bendamustine-resistant Hodgkin lymphoma cell line L1236-R100, non-resistant L1236 Hodgkin lymphoma cell line cultured in DMSO L1236/DMSO and L1236 was cultured in the presence of EDO-S101 dissolved in DMSO at concentrations of 0.78 μM, 1.56 μM, 3.12 μM, 6.25 μM and 12.5 μM. Control cells were cultured in the same final concentration of DMSO. The number of viable cells was assessed at 24, 48 and 72 hours through a Countess™ automated cell counter (Invitrogen), each experiment being repeated three times and the results given being the mean of the three results ±SD.

KMH2 cell line = test: Clonogenic survival in methylcellulose; assay type: cell-based, human; details: lowest doses 0.1 and 0.5 μmol
Method: (§1) In all examples, the human Hodgkin lymphoma-derived cell lines L428, L428-c, KMH2, L591, L540, L1236, HDLM2 and SUP-HD were obtained from Dr Steffen Junker (Aarhus University Denmark). All cell lines were cultured in Gibco RPMI 1640 medium supplemented with Glutamax, 10% FBS and antibiotics at 37° C. […] The immunophenotype, P53 status and MSI characterization of the Hodgkin lymphoma cell lines was determined using anti-CD30, CD15, CD20 and CD14 antibodies.
(§2) This test was performed on four Hodgkin lymphoma cell lines (L428, L428s, KMH2 and L540). Each was cultured with EDO-S101 at doses of 0, 0.1, 0.5, 1, 10 and 20 μmol in DMSO. The cell lines were cultured in methylcellulose (Stem cell Technologies) at a concentration of 10^5/ml at 37° C. and 5% CO2. The surviving fraction was determined by measuring the viability of colonies generated before and after exposure. Only colonies with more than 50 cells were counted. Each data point represents the average and SD from three independent experiments performed in triplicate.

L540 cell line = test: Clonogenic survival in methylcellulose; assay type: cell-based, human; details: any dose (0.1 to 20 μmol)
Method: as §1, §2

L428s = test: Clonogenic survival in methylcellulose; assay type: cell-based, human; details: very low doses 0.1 and 0.5 μmol
Method: as §1, §2

L428 = test: Clonogenic survival in methylcellulose; assay type: cell-based, human; details: very low doses 0.1 and 0.5 μmol
Method: as §1, §2

[3] = Weight of xenografted mice; assay type: in vivo, NSG mice
Method: Two independent experiments were performed to investigate the dose-effect of EDO-S101 in NSG mice eight weeks after xenografting with L428 cells as in Example 8. The aim of the protocol shown in FIG. 8B was to evaluate the effect of sequential treatment with a moderate dose of 60 mg/kg given at an interval of three weeks.
This weight loss was also observed in mice treated with the vehicle. In contrast, the weight of the control mice receiving only freshly prepared phosphate buffered saline (PBS) buffered to 7.3-7.4 increased up to 11 weeks and then started to decrease.
The toxicity of the dose of 80 mg/kg compared to 60 mg/kg was investigated, as compared to the control groups vehicle and PBS.

CD14 cells = test: CD14-positive cells by flow cytometry in xenografted mice; assay type: in vivo, NSG mice
Method: Cells were gated to exclude apoptotic or necrotic cells and sorted into CD30−/CD15− and CD30+ and CD15+/CD30+ fractions by gating on the lowest and highest 5% PE-expressing cells, respectively. Following sorting, the CD30−/CD15− cell fractions were analyzed using a FACScan flow cytometer (Becton Dickinson) and found to be more than 98% pure. For phenotypic analyses of cell lines or sorted cells, cells were prepared as described, and then stained with mouse anti-human CD30-phycoerthrin (PE), CD15-fluorescein isothyocyanate (FITC), CD14-APC-cyanine 7 (Cy7) and CD45-APC (all antibodies from BD PharMingen, San Diego, Calif.). […] Cells were subsequently analysed using a FACS LSRII (Becton Dickinson, Franklin Lakes, N.J.). […]
Novel biomarkers CD68 and CD14 which are expressed by tumour associated macrophages and myeloid derived suppressor cells respectively in the microenvironment have recently been reported to affect the prognosis of Hodgkin lymphoma (Haematologica, 2011 Feb; 96(2): 186-189). The presence of the CD14-positive cells following administration of a single dose of EDO-S101 (60 mg/kg or 80 mg/kg) and after two administrations of EDO-S101 at 60 mg/kg was evaluated using flow cytometry with anti CD14 antibodies.

L1236-R100 = test: Viable cell count and IC50, bendamustine-resistant line; assay type: cell-based, human
Method: (b) The bendamustine-resistant Hodgkin lymphoma cell line L1236-R100, non-resistant L1236 Hodgkin lymphoma cell line cultured in DMSO L1236/DMSO and L1236 […] Control cells were cultured in the same final concentration of DMSO. The number of viable cells was assessed at 24, 48 and 72 hours through a Countess™ automated cell counter (Invitrogen), each experiment being repeated three times and the results given being the mean of the three results ±SD.

## Cn1c(CCCCCCC(=O)NO)nc2cc(N(CCCl)CCCl)ccc21 [EDO-S101]
R100 cell line
  effect on ATM/ATR unbalance: upregulating ATR and downregulating ATM transcripts
[1]
  IC50s compared with those of bendamustine: about ten-fold lower
[2]
  anti-proliferative activity compared with bendamustine: approximately two orders of magnitude greater than for bendamustine
KMH2 cell line
  clones observed: only a few clones
L540 cell line
  clones observed: No clone was observed
L428s
  clones observed: only macrophagic clones being observed
L428
  clones observed: only macrophagic clones being observed
[3]; 60 mg/kg versus 80 mg/kg
  difference between weight losses: no significant difference
[3]; mouse, in vivo
  weight of the mice or the different organs: No significant difference
[3]; two doses of 60 mg/kg three weeks apart
  weight of the mice: weight loss following each administration which was regained after several weeks
CD14 cells; 2×60 mg/kg versus single 80 mg/kg
  frequency of CD14 cells: higher frequency following treatment with 2×60 mg/kg than treatment with a single dose of 80 mg/kg
CD14 cells; treated versus untreated mice
  frequency of CD14 cells: significantly higher frequency of CD14 cells in untreated mice compared to treated mice
L1236-R100
  anti-proliferative activity compared with vorinostat: greater than that of vorinostat
L1236-R100; 48 hours after treatment with 50 μM
  viable cells: no viable cells being observed
